Assay results published in publication PMC11206988, “Study on the Effect of Pharmaceutical Excipient PEG400 on the Pharmacokinetics of Baicalin in Cells Based on MRP2, MRP3, and BCRP Efflux Transporters” (Pharmaceutics, 2024).
Where two headings read alike, the source gives them in different places.

Assays:
Type in all cases: in vitro ADME
[1] = Transport of baicalin across MDCK II-WT cell monolayer (transwell); conditions: dog, MDCK, pH 7.4, MDCK II-WT; for efflux ratio at 120 min, 100 μM: read-out: ER
Description: (§1) The cells were inoculated at a density of 0.5 mL (1 × 10^5) in the upper layer of the transwell plate (AP side), and the culture was changed daily after the lower layer was added with 1.5 mL of complete medium without cells every other day. After 5–7 days of growth, the supernatant was aspirated and discarded, and the cell monolayer was rinsed twice with 37 °C Hank’s Balanced Salt Solution (HBSS, pH 7.4). The electrical resistance of the cell monolayer compartments was measured with a resistivity meter (TEER), and the integrity of the cell monolayer was monitored using TEER. The differentiation of MDCK II-WT, MDCK II-MRP2, MDCK II-MRP3, and MDCK II-BCRP cells was examined by determining sodium fluorescein permeability prior to transit experiments. This was done in order to determine the integrity of the cell monolayer. When the TEER value of the cell monolayer was greater than 150 Ω·cm^2 and the MDCK II-MRP2, MDCK II-MRP3, and MDCK II-BCRP sodium fluorescein permeability was less than 0.5 × 10^−6 cm/s or the MDCK II-WT sodium fluorescein permeability was less than 1 × 10^−6 cm/s, the cell monolayer was considered intact and suitable for transit experiments. TEER = (TEERcell monolayer − TEERblank) × Aarea(1) wherein TEERcell monolayer is the resistance of the cell monolayer read directly from the Millicell ERS-2 resistivity meter, and TEERblank is the resistance read by inserting a blank HBSS (no cells) only. Aarea is the surface area of the filter membrane, 1.12 cm^2.
(§2) In this experiment, a 100 μM baicalin solution (dissolved in HBSS) containing different concentrations of PEG400 (0.25%, 0.5%, and 1%) was employed as the test solution, while a solution without PEG400 was used as the blank test solution, which was added to AP or BL chambers, respectively. In the top to basolateral (AP-BL) transport experiment, the 0.5 mL sample added to the apical side (AP) was utilized as the supply room, and the HBSS preheated to 1.5 mL 37 °C was added to the basolateral (BL) as the receiving chamber. Conversely, in the basal low lateral to top (BL-AP) transport experiment, the 1.5 mL sample (dissolved in HBSS) was added to the BL side as the supply room, and the 0.5 mL preheated HBSS was added as a receiving room on the AP side. Once the aforementioned steps had been completed, the transwell was placed on a 37 °C thermostatic oscillator at 60 r/min, and 100 μL was withdrawn from the receiving cell or 10 μL from the supply chamber at 30, 60, 90, and 120 min, depending on the experiment, and replenished with an equal volume of blank 37 °C preheated HBSS. The samples were utilized to precipitate the proteins with 100 μL of methanol containing the internal standard for 10 min. After centrifugation at 16,000× g for 15 min at 4 °C, the supernatant was collected in a volume of 70 μL. The contents were determined by UPLC-MS/MS, and apparent permeability coefficients (PAPP) and efflux ratios (ER) were calculated.
(§3) The formulas for calculating Papp and ER of monolayer and monolayer are as follows:(2) Papp=dQ/dt/AC0 wherein dQ/dt (ng/mL·s) is the transit rate (ng/mL·s); A is the membrane area (1.12 cm^2); and C0 (ng/mL) is the initial concentration of the sample in the supply chamber. ER = PappBL-AP/PappAP-BL (3) wherein PappBL-AP is the apparent permeability coefficient when the BL is added to the sample, and PappAP-BL is the apparent permeability coefficient when the sample is added at the top side (AP).

[2] = tested on: MDCK II-WT cells; test: as above; conditions: MDCK II-WT
Description: as §1, §2, §3

[3] = molecular target: T1, MRP3 (Homo sapiens, UniProt O15438); test: Transport of baicalin across MDCK II-MRP3 cell monolayer (transwell); conditions: human, pH 7.4, MDCK II-MRP3
T1 construct: host or cells: MDCK II
T1 sequence (O15438 whole entry): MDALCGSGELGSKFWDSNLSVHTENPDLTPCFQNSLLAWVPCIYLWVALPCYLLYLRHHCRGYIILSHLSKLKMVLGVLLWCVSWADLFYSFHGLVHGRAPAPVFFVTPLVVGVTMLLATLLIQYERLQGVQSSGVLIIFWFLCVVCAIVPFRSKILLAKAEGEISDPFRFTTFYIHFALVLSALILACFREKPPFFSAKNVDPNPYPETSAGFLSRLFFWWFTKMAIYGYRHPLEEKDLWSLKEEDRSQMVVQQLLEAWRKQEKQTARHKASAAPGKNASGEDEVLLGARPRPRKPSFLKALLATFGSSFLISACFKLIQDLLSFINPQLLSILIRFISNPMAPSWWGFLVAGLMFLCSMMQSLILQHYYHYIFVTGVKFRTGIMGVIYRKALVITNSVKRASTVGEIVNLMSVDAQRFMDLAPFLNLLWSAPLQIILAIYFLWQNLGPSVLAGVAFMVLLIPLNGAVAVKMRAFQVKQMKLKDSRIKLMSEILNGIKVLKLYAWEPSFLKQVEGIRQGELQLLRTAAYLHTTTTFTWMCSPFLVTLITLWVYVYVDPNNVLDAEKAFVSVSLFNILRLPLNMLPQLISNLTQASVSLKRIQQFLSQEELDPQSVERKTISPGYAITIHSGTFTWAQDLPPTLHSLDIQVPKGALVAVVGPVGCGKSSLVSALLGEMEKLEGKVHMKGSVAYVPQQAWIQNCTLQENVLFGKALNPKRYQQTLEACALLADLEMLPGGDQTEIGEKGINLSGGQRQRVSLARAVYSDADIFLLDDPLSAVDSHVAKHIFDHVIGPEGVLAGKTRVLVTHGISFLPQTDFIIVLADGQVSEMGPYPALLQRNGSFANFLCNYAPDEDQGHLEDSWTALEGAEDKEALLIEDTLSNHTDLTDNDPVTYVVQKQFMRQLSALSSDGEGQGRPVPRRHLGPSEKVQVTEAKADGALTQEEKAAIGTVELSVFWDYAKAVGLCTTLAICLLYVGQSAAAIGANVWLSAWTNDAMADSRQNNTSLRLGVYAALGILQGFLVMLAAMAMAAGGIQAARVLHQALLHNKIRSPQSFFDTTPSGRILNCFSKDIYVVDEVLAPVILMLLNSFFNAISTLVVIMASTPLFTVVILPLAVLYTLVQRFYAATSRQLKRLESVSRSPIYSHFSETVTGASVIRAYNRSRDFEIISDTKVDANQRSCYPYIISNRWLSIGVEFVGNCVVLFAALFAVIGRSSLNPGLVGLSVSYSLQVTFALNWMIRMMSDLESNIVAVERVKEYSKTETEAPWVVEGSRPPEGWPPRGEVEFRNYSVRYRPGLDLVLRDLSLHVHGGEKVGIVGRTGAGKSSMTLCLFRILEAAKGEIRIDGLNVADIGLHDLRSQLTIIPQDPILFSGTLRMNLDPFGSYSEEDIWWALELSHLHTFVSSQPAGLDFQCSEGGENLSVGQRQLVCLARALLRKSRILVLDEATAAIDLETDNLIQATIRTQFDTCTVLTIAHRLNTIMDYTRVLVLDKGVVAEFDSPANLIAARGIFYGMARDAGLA
Description: as §1, §2, §3

[4] = molecular target: T2, MDCK II-MRP3 (Homo sapiens, UniProt O15438); test: as above; conditions: MDCK II-MRP3; high-concentration PEG400 group vs control group
T2 construct: host or cells: MDCK II
T2 sequence (O15438 whole entry): as above
Description: as §1, §2, §3

[5] = molecular target: T3, MRP2 (Homo sapiens, UniProt Q92887); test: Transport of baicalin across MDCK II-MRP2 cell monolayer (transwell)
T3 construct: expressed in transfected cells; host or cells: MDCK II
T3 sequence (Q92887 whole entry): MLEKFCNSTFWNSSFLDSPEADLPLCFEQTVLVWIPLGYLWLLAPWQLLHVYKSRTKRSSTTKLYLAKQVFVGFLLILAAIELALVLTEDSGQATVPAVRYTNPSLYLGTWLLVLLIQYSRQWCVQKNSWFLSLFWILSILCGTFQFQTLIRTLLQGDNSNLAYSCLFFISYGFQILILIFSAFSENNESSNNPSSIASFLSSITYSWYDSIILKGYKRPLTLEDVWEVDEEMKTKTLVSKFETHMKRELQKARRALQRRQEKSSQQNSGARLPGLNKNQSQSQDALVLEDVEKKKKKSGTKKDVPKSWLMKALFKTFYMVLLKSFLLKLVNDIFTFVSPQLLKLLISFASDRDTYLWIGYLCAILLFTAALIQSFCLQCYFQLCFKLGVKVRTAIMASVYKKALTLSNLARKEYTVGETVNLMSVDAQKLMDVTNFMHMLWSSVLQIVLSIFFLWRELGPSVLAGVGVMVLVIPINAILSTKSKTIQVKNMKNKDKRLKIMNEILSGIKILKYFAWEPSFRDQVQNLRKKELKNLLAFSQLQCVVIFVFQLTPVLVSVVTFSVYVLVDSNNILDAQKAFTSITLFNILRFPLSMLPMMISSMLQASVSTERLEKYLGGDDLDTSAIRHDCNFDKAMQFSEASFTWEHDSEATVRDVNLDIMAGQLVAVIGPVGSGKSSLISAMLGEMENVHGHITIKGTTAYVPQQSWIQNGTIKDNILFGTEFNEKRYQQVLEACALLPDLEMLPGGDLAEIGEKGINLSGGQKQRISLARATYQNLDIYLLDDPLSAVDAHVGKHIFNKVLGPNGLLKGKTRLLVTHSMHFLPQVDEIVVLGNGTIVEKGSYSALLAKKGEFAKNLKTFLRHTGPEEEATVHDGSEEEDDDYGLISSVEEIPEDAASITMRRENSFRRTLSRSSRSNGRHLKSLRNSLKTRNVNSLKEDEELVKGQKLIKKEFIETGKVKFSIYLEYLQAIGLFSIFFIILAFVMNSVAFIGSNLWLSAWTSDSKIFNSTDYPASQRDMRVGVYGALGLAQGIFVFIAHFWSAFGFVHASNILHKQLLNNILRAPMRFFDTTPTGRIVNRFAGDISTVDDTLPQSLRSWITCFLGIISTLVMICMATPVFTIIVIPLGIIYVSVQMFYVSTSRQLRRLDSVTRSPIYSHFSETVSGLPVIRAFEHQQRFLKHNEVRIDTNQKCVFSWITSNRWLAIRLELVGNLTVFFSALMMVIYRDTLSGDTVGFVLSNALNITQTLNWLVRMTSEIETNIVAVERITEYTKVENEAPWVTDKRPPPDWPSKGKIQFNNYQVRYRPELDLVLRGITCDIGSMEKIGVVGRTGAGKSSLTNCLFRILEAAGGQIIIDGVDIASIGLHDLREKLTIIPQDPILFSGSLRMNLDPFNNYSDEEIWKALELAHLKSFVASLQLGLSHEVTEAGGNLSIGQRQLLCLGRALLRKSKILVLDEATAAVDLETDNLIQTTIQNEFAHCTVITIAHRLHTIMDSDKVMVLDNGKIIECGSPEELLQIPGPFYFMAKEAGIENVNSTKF
Description: as §1, §2, §3

[6] = pH 7.4, MDCK II-MRP2, 100 μM BG + 0.25% PEG400
[7] = pH 7.4, MDCK II-MRP2, 100 μM BG + 0.5% PEG400
[8] = pH 7.4, MDCK II-MRP2, 100 μM BG + 1% PEG400
[9] = pH 7.4, MDCK II-MRP2, 100 μM BG alone

O=C(O)[C@H]1O[C@@H](Oc2cc3oc(-c4ccccc4)cc(=O)c3c(O)c2O)[C@H](O)[C@@H](O)[C@@H]1O [BG, Baicalein-7-O-β-D-glucuronide]
Papp A→B at 120 min, 100 μM ([1]; 100 μM BG + 0.25% PEG400): 4.57 ± 1.08 ×10⁻⁶ cm/s | Papp B→A at 120 min, 100 μM ([1]; 100 μM BG + 0.25% PEG400): 7.94 ± 0.99 ×10⁻⁶ cm/s | efflux ratio at 120 min, 100 μM ([1]; 100 μM BG + 0.25% PEG400): 1.94 ± 0.27 | Papp A→B at 120 min, 100 μM ([1]; 100 μM BG + 0.5% PEG400): 5.24 ± 0.53 ×10⁻⁶ cm/s | Papp B→A at 120 min, 100 μM ([1]; 100 μM BG + 0.5% PEG400): 6.78 ± 1.19 ×10⁻⁶ cm/s | efflux ratio at 120 min, 100 μM ([1]; 100 μM BG + 0.5% PEG400): 1.53 ± 0.14 | Papp A→B at 120 min, 100 μM ([1]; 100 μM BG + 1% PEG400): 5.47 ± 0.94 ×10⁻⁶ cm/s | Papp B→A at 120 min, 100 μM ([1]; 100 μM BG + 1% PEG400): 3.61 ± 0.26 ×10⁻⁶ cm/s | efflux ratio at 120 min, 100 μM ([1]; 100 μM BG + 1% PEG400): 1.19 ± 0.12 | Papp A→B at 120 min, 100 μM ([1]; 100 μM BG alone): 3.18 ± 0.07 ×10⁻⁶ cm/s | Papp B→A at 120 min, 100 μM ([1]; 100 μM BG alone): 11.6 ± 1 ×10⁻⁶ cm/s | efflux ratio at 120 min, 100 μM ([1]; 100 μM BG alone): 2.58 ± 0.27 | ER ([2]; 100 μM BG + 0.25% PEG400): 1.8 ± 0.44 | ER ([2]; 100 μM BG + 0.5% PEG400): 1.29 ± 0.11 | ER ([2]; 100 μM BG + 1% PEG400): 0.67 ± 0.07 | ER ([2]; 100 μM BG alone): 3.64 ± 0.28 | Papp A→B at 120 min, 100 μM ([3]; 100 μM BG + 0.25% PEG400): 1.06 ± 0.16 ×10⁻⁶ cm/s | Papp B→A at 120 min, 100 μM ([3]; 100 μM BG + 0.25% PEG400): 1.04 ± 0.08 ×10⁻⁶ cm/s | Papp A→B at 120 min, 100 μM ([3]; 100 μM BG + 0.5% PEG400): 1.77 ± 0.2 ×10⁻⁶ cm/s | Papp B→A at 120 min, 100 μM ([3]; 100 μM BG + 0.5% PEG400): 0.85 ± 0.1 ×10⁻⁶ cm/s | Papp A→B at 120 min, 100 μM ([3]; 100 μM BG + 1% PEG400): 2.65 ± 0.44 ×10⁻⁶ cm/s | Papp B→A at 120 min, 100 μM ([3]; 100 μM BG + 1% PEG400): 0.72 ± 0.16 ×10⁻⁶ cm/s | Papp A→B at 120 min, 100 μM ([3]; 100 μM BG alone): 0.74 ± 0.1 ×10⁻⁶ cm/s | Papp B→A at 120 min, 100 μM ([3]; 100 μM BG alone): 1.18 ± 0.08 ×10⁻⁶ cm/s | increase in the PAPPAP-BL/PAPP BL-AP ratio [4]: 5.97 fold | Papp A→B at 120 min, 100 μM [5, 6]: 1.27 ± 0.02 ×10⁻⁶ cm/s | Papp B→A at 120 min, 100 μM [5, 6]: 2.83 ± 0.26 ×10⁻⁶ cm/s | efflux ratio at 120 min, 100 μM ([5]; pH 7.4, MDCK II-MRP2, 100 μM BG + 0.25% PEG400, read-out: ER): 2.22 ± 0.17 | Papp A→B at 120 min, 100 μM [5, 7]: 2.51 ± 0.07 ×10⁻⁶ cm/s | Papp B→A at 120 min, 100 μM [5, 7]: 2.73 ± 0.31 ×10⁻⁶ cm/s | efflux ratio at 120 min, 100 μM ([5]; pH 7.4, MDCK II-MRP2, 100 μM BG + 0.5% PEG400, read-out: ER): 1.08 ± 0.09 | Papp A→B at 120 min, 100 μM [5, 8]: 3.17 ± 0.06 ×10⁻⁶ cm/s | Papp B→A at 120 min, 100 μM [5, 8]: 2.53 ± 0.17 ×10⁻⁶ cm/s | efflux ratio at 120 min, 100 μM ([5]; pH 7.4, MDCK II-MRP2, 100 μM BG + 1% PEG400, read-out: ER): 0.8 ± 0.04 | Papp A→B at 120 min, 100 μM [5, 9]: 1.12 ± 0.11 ×10⁻⁶ cm/s | Papp B→A at 120 min, 100 μM [5, 9]: 3.28 ± 0.27 ×10⁻⁶ cm/s | efflux ratio at 120 min, 100 μM ([5]; pH 7.4, MDCK II-MRP2, 100 μM BG alone, read-out: ER): 2.45 ± 0.04
